Measured values taken from US7141541B1, “Use of peptides” (University Court of the University of Dundee, priority 1999, dated 2006).
Where a SMILES comes first, the peptide text is derived from it. Where no end group is shown, it is not given here. The star is where a group is joined. Biotin = O=C1N[C@H]2[C@H](CS[C@H]2CCCCC(=O)*)N1; Cbz = O=C(OCc1ccccc1)*; CH2F = FC*

Assays:
[1] = system: serum deprived cells; assay: protection from peptide-induced cell death by serum / MAP kinase activation (FIG. 15); type: cell-based
Description: FIG. 15 illustrates that the acute activation of MAP kinase protects cells from 4E-binding peptide induced cell death; and
In the presence of 10% ECS, cells were resistant to treatment with 20 μm of the peptides. Cells only died if they were serum deprived for 72 hours (more than 85%) within 15 minutes after the peptide had been applied (see FIG. 15). However, if serum deprived cells (72 h) were pre-treated with 10% FCS or with 20 nM PMA (phorbol ester) for 15 minutes before the peptides were added, the cells survived the subsequent peptide treatment (60–70%).
Furthermore, if the serum deprived cells were instead pre-treated with the MAPK inhibitor PD098059 for 1 hour before 10% FCS was added, approximately 80–90% of the cells died.

[2] = system: MRC5 cells; assay: peptide-induced cell death (apoptosis) in MRC5 cells; type: cell-based; details: for biological effect (apoptosis): MRC5 cells / cultured mammalian cells
From the text: FIG. 8 is a table illustrating the induction of apoptosis by eIF4G peptides in MRC5 cells;
FIG. 9 is a summary of the results of inhibition of eIF4G(413-424)-induced apoptosis;

[3] = system: MRC5 cells; assay: MTT assay with general translation inhibitors (FIG. 16); type: cell-based; details: for protection against the effect of the Hu4G peptide: pre-incubation 30 min prior to 10 μM Hu4G peptide; for cell killing: serum deprived cells
Description: (§1) FIG. 16 illustrates that eIF4E binding peptide cell death is not through eIF4E's known role in mRNA translation. a) 72 h serum-starved MRC5 cells were treated with 100 μg/ml and 10 μg/ml cylcoheximide, 1 μg/ml and 0.1 μg/ml pactamycine or 10 μM Hu4G peptide for 2 h prior to a MTT assay. Cells were pulsed labelled with [^35S]methionine for 30 min after addition of the inhibitors/peptide. The incorporation of [^35S]methionine into protein was determined following hot trichloroacetic acid precipitation. b) 72 h serum-starved MRC5 cells were treated with 100 μg/ml cycloheximide (Chx), 1 μg/ml pactamycine (Pact) or c) MRC5 cells which had been starved of serum for 72 h were pre-incubated with 100 μg/ml cycloheximide or 1 μg/ml pactamycine for 30 min prior to addition of 10 μM Hu4G peptide. Cells were then further incubated for 1.5 h prior to a MTT assay. Results from three independent experiments (+/− SEM).

[4] = system: MRC5 cells; assay: [35S]methionine incorporation into protein; type: cell-based; details: serum deprived cells, 30 minutes
Description: as §1
Serum deprived cells were treated with the general translation inhibitors Cyclohexamide or Pactamycin at indicated concentrations or the H4G peptide in the presence of 35S-Met for 30 minutes (see FIGS. 16a,b). Cells were lysed and the amount of translation was estimated by counting incorporated 35S-Met in precipitated protein fractions.

[5] = system: MRC5 cells; assay: cell survival by MTT assay; type: cell-based; details: for cell death / cell viability: various concentrations, 72 h serum-starved MRC5 cells, FIGS. 13b,c,d
Description: FIGS. 13a–d are graphs showing cell survival (% of control, untreated cells) as measured by MTT assay. a) Lane 1: 10 μM BP2 peptide added to serum-fed cells or Lane 2, 3, 4: 10 μM BP2 peptide added to 24 h, 48 h or 72 h serum-starved cells respectively. Lane 5: 10 μM BP2 YLL-AAA added to 72 h serum starved cells. Lane 6: 72 h serum starved cells incubated in 10% serum for 1 h prior to addition to 10 μM BP2 peptide. Lane 7: 72 h serum starved cells incubated with 100 μg/ml cycloheximide followed by a 1 h incubation with 10% serum prior to the addition of 10 μM BP2 peptide. In all cases the cells were then further incubated for 1 h in 0.1 mg/ml MTT. Cells were lysed in DMSO and absorbance was measured at […]. b–d) Varying concentrations of peptides were added to 72 h serum starved MRC5 cells. After 30 min incubation the cells were then further incubated for 1 h in 0.1 mg/ml MTT. Cells were lysed in DMSO and absorbance was measured at 570 nm.

[6] = biological target: recombinant human eIF4E (Homo sapiens, UniProt P06730); assay: in vitro binding (pull-down) assay with eIF4E; details: for interaction with human eIF4E: FIG. 12b(i), 1 μg recombinant eIF4E, 0.2 mM biotinylated peptide, 1 h at 4° C.
Chain of recombinant human eIF4E (Homo sapiens, UniProt P06730) (P06730 whole entry): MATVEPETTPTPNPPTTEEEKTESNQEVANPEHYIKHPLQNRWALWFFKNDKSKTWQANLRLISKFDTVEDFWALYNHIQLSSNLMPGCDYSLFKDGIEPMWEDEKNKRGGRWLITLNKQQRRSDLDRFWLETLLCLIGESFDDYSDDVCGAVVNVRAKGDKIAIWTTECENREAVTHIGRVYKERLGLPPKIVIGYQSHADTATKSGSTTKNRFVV
Description: (§2) Sequences of biotinylated, penetratin-linked peptides. U=Norvaline, a substitution for cysteine. Conserved residues that are important in binding to eIF4E are underlined. b). In vitro binding assay. i) 1 μg recombinant eIF4E was incubated with 0.2 mM biotinylated peptides in a total volume of 50 μl wash buffer (1×PBS/250 mM Kcl) for 1 h at 4° C. ii) 0.2 mM Hu4G or Hu4G YLL-AAA was incubated with 200 μg MRC5 cell lysate for 1 h at 4° C. in a total volume of 50 μl wash buffer. In all cases the biotinylated peptides and associated proteins were pulled down using streptavidin agarose. The proteins were separated by SDS PAGE and subjected to Western blotting using anti-eIF4E antibody. Detection was by ECL;
In order to study directly the role of eIF4E in cell transformation, a series of biotinylated synthetic peptides (Peptides synthesised by Cyclacel) corresponding to the eIF4E interacting domain (binding motif) of human eIF4G, and wheat eIF4G and alanine substituted peptides thereof were synthesised (see FIG. 12a) and tested for their capacity to interact with ^35S-Met labelled in vitro translated human eIF4E (NB. Peptides BP1 and BP1 YLM-AAA were not biotinylated). Peptides were coupled to streptavidin coated agarose beads by a N-terminus linked biotin group and washed in PBS/0.2% Tween 3× before being incubated for 1 hour at +4° C. with in vitro translated human eIF4E. Beads were washed as above and boiled for 5 min. in SDS loading buffer before the peptide bound proteins were separated on a 10% SDS gel. The bands were visualised by autoradiography.

[7] = system: MRC5 cells; assay: mitochondrial permeability transition (JC1 dye, confocal microscopy); type: cell-based; details: 10 μM peptide, serum-starved MRC5 cells
Description: (§3) MRC5 cells were incubated with 10 μM Hu4G peptide for 10 min. Cells visualised with fluorescein by fluorescence microscopy. […] 80% of cells incubated with the 10 μM Hu4G peptide fluoresced positive. d) Images of DAPI-stained MRC5 cells incubated with either 20 μM Hu4G or Hu4G YLL-AAA peptide for 40 min. Arrows indicate the position of a cell with either a condensed nucleus (top right) or a nucleus with a punctate appearance (bottom left). e) Visualisation of effects on the MPT. Serum-starved MRC5 cells were loaded with 0.1 μM JCl for 30 min prior to addition of 10 μM peptide. Changes in mitochondrial permeability were viewed by laser scanning confocal microscopy (krypton/argon laser) using identical setting. Green channel: excitation 488 nm/emission 522 nm. Red channel: excitation 568 nm/emission 585 nm. Channels were collected separately to avoid cross over. Images were taken 5 min after addition of the peptide;
An early event considered decisive in apoptosis is the opening of the mitochondrial permeability transition (MPT) pore (20–22). To characterise further the eIF4E-binding peptide-induced cell death, the development of the MPT was investigated in living MRC5 cells loaded with the fluorescent dye, JC1 (21).

[8] = system: MRC5 cells; assay: TUNEL analysis; type: cell-based; details: 10 μM peptide
Description: as §3

[9] = biological target: T1, eIF4E in MRC5 cell lysate (Homo sapiens, UniProt P06730); assay: pull-down of eIF4E from MRC5 cell lysate; type: binding; details: 0.2 mM peptide, 200 μg MRC5 cell lysate, 1 h at 4° C.
T1 construct: endogenous in cells; host or cells: MRC5
T1 sequence (P06730 whole entry): as above
Description: as §2

[10] = system: HaCaT, Swiss 3T3, RATI and IIeLa cells; assay: cell survival in other cell-types; type: cell-based; details: results not shown
[11] = system: cap-independent translation initiation; assay: in vitro translation assay, cap-independent; type: biochemical
[12] = system: cap-dependent translation initiation; assay: in vitro translation assay, cap-dependent; type: biochemical
[13] = biological target: T2, recombinant human eIF4E (human, UniProt P06730 1-217, limits assumed); assay: in vitro pull-down of recombinant human eIF4E (FIG. 5)
T2 construct: also called in vitro translated human eIF4E; eukaryotic initiation factor 4E
T2 sequence (P06730 whole entry): as above

[14] = biological target: T2, recombinant human eIF4E; assay: streptavidin agarose pull-down with biotinylated peptide
Description: as §2, with “FIG. 12 illustrates that eIF4E-binding peptides leads to rapid, dose-dependent, cell death. a). Sequences” for “Sequences”, “µg” for “μg”, “µl” for “μl”

With COc1cccc(-c2cc(=O)c3ccccc3o2)c1N [PD098059, reference compound] the cells died ([1]; serum deprived cells pre-treated for 1 hour before 10% FCS was added) was 80–90% and the “effect on serum induced resistance to the peptides” value ([2]; pre-treatment with the MEK inhibitor) was “serum induced resistance could be inhibited”.

With CCCCCCCCCCCCCC(=O)O[C@@H]1[C@@H](C)[C@@]2(O)[C@@H](C=C(CO)C[C@]3(O)C(=O)C(C)=C[C@@H]23)[C@@H]2C(C)(C)[C@]12OC(C)=O [PMA] the “cells survived the subsequent peptide treatment” value ([1]; serum deprived cells (72 h) pre-treated with 20 nM for 15 minutes) was 60–70%.

COC(=O)C[C@H](NC(=O)[C@H](C)NC(=O)[C@@H](NC(=O)OCc1ccccc1)C(C)C)C(=O)CF [ZVAD.fmk, reference compound] (Cbz-Val-Ala-Asp(OMe)-CH2F) was tested, and the “effect of pre-treatment on peptide-induced cell death” value ([2]; MRC5 cells, results not shown) was “did not affect peptide-induced cell death”.

With C[C@@H]1C[C@@H]([C@H](O)CC2CC(=O)NC(=O)C2)C(=O)[C@@H](C)C1 [cycloheximide] the “protection against the effect of the Hu4G peptide” value [3] was “did not result in any protection”, the cell killing [3] was “do not kill the cells” and the “incorporation of 35S-Met (translation)” value [4] was “block translation”. The “effect on protective effect of serum” value ([5]; pre-incubation with 100 μg/ml, then 10% serum 1 h, then 10 μM BP2 peptide) was “could not be inhibited”.

In the case of CC(=O)c1cccc(N[C@H]2[C@H](N)[C@@](NC(=O)N(C)C)([C@H](C)O)[C@@](C)(O)[C@@]2(O)COC(=O)c2c(C)cccc2O)c1 [pactamycin], the “protection against the effect of the Hu4G peptide” value [3] is reported as “did not result in any protection”, the cell killing [3] is reported as “do not kill the cells” and the “incorporation of 35S-Met (translation)” value [4] is reported as “block translation”.

“Hu4G Y-A: singly alanine-substituted, penetratin-linked human eIF4G peptide (KKRADREFLLGFRQIKIWFQNRRMKWKK)” was tested, and the “biological effect (apoptosis)” value ([2]; FIG. 8) was “intermediate biological effect”, the “cell death / cell viability” value [5] was “reduced capacity to induce cell death” and the “interaction with human eIF4E” value [6] was “lower binding affinity”.

With “Hu4G YLL-AAA: triple alanine substituted, penetratin-linked human eIF4G peptide, unable to bind eIF4E (KKRADREFAAGFRQIKIWFQNRRMKWKK)” the “changes in JC1 fluorescence (MPT pore opening)” value [7] was “No changes in florescence were observed”, the “biological effect (apoptosis)” value ([2]; FIG. 8) was “did not cause the observed biological effect (apoptosis)” and the TUNEL signal [8] was “No signal was observed”. The “binding of eIF4E in cell lysates” value [9] was “did not”, the “interaction with human eIF4E” value [6] was “did not interact with eIF4E” and the cell survival [10] was “no effect on cell survival”.

For “RVRYSRDQLLDL (listed as Triticum aestivum) [wheat eIF4G(62-73)]”, the “inhibition of cap-independent translation initiation in vitro” value [11] was “not cap-independent translation initiation”, the “inhibition of cap-dependent translation initiation in vitro” value [12] was “found to inhibit cap-dependent translation initiation” and the “binding to recombinant human eIF4E in vitro” value ([6]; FIG. 4, FIG. 5) was “bound to and pulled down more recombinant human eIF4F in vitro than human eIF4G(569-580) did”.

For “W4G: biotinylated, penetratin-linked peptide of the eIF4E binding motif of wheat eIF4G (Biotin-RVRYSRDQLLDLRQIKIWFQNRRMKWKK)”, the “effect of limited serum treatment on sensitivity to the peptide” value ([2]; FIG. 9) was “Resistance”, the “cell death (possibly by apoptosis)” value ([2]; serum starved cell lines, FIG. 8) was “caused rapid cell death” and the “cell death / cell viability” value [5] was “rapid, dose-dependent, cell death”.

KKRYDREFLLGF (also called human eIF4G413-424) [human eIF4G(569-580)]: binds [13].

B1: Human eIF4G(569-580)Y416AL421AL422A-Penetratin (peptide)
peptide: KKRADREFAAGFRQIKIWFQNRRMKWKK
modifications: not fully specified (N-terminus)
notes: Order of pieces from the printed name; also called Hu4G YLL-AAA; triple alanine human eIF4G peptide
B1: no binding (tested: 0.2 mM peptide (FIG. 12b legend)) [14].

RVRYSRDQLLDL [wheat eIF4G(62-73)]: binds [13].
